Measurements taken from US12691084B2, “Pharmaceutical composition for preventing or treating bone diseases” (INDUSTRY FOUNDATION OF CHONNAM NATIONAL UNIVERSITY, priority 2019, dated 2026).

How the values were obtained:
[1] = ADME evaluation (DGMIF), overall conclusion on toxicity; type: in vitro ADME; conditions: conclusion from ADME evaluation
Method: (§1) In order to analyze the drug metabolism of PMSA compound, ADME evaluation was requested to the Daegu-Gyeongbuk Advanced Medical industry Promotion Foundation (DGMIF). Metabolic stability of drugs using liver microsomes (microsomal stability), drug metabolism inhibitory ability by five CYP450 enzymes, plasma metabolism (plasma stability), plasma protein binding, and intestinal permeability of drugs (PAMPA, parallel artificial membrane permeability assay) were analyzed. […] Further, it was confirmed that the permeability resistance was excellent (see Table 3 below). On the other hand, for one of PMSA derivatives, that is, 2-(N-(3,5-dimethylphenyl)methylsulfinamido)-N-(2 (phenylthio)phenyl)propanamide (#25-D5), intestinal permeability of the drug (PAMPA) was not measured.

Microsomal stability (M) = type: in vitro ADME, mouse; conditions: M of H/M; criterion >60%
Method: as §1

CYP2C19 = CYP2C19 (Homo sapiens, UniProt P33261); assay: CYP450 drug metabolism inhibition, 2C19; type: in vitro ADME; conditions: criterion remaining activity >50%
Sequence of CYP2C19 (P33261 whole entry): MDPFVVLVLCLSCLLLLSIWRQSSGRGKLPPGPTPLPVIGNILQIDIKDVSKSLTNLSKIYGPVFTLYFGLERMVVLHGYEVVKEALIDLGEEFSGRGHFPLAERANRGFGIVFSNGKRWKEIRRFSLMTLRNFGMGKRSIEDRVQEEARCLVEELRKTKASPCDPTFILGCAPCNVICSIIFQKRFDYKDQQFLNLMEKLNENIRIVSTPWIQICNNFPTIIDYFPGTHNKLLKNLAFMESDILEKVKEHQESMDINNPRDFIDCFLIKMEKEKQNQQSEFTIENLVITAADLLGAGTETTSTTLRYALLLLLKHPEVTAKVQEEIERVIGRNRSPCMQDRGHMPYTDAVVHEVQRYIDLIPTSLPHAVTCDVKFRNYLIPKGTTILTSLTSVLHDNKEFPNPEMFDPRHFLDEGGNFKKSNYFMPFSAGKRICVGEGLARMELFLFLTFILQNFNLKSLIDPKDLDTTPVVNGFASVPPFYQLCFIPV
Method: as §1

mouse bone marrow cells = assay: Bone resorption assay on calcium phosphate coated plate; type: cell-based; conditions: 6 days; for decrease in bone resorption ability: compared to differentiated osteoclasts (Ctrl) not treated, fluorescence absorbance
Method: Bone resorption ability was confirmed using a bone resorption assay kit (Cosmo Rio, CSR-BRA). 2.5×10^4 mouse bone marrow cells per well were put into a 48-well plate coated with calcium phosphate, followed by treating the cells with PMSA to perform differentiation for 6 days. After 6 days, a fluorescence absorbance was measured with the culture medium to confirm the bone absorption ability. Further, decomposition degree of calcium phosphate was photographed a microscope to confirm the bone resorption ability. […] In FIG. 4, BMMs refer to monocytes that are not differentiated osteoclasts.
Further, the bone resorption ability was confirmed using a bone resorption assay kit (Cosmo Bio, CSR-BRA). 2.5×10^4 mouse bone marrow cells per well were put into a 48-well plate coated with calcium phosphate, and were differentiated for 6 days while being treated with PSTP-3,5-Me. After 6 days, the fluorescence absorbance was measured with the culture medium to confirm the bone absorption ability.

[2] = system: monocytes isolated from mouse bone marrow treated with RANKL; assay: Osteoclast differentiation inhibition, TRAP staining and assay; type: cell-based; conditions: for cells differentiated into osteoclasts (differentiation area ratio per total area): 10 μM, RANKL, Image J; for cells differentiated into osteoclasts (differentiation area ratio per total area) / osteoclast differentiation inhibitory ability: TRAP staining; for osteoclast differentiation inhibitory ability: area of differentiated osteoclasts
Method: Macrophages were isolated from bone marrow of 8-week old C57BL/6J mice, and seeded on a 96-well plate in an amount of 1×10^4 cells per well, followed by treating the cells with osteoclast differentiation factors M-CSF and RANKL at 30 ng/ml and 50 ng/ml, respectively. At the same time, the compounds were used for treatment, followed by culturing the cells for 3 to 4 days. Thereafter, differentiation influence was evaluated through TRAP staining and cell counting. Specific experimental procedures and results are as follows.
The bone marrow of a 10-week-old female mouse was isolated from the hip bone, femur and tibia, and incubated in α-MEM medium (Gibco, 12561-056, 10% fetal bovine serum, 1% penicillin/streptomycin) containing macrophage colony stimulating factor (M-CSF, PeproTech, 315-02, 30 ng/ml) for […] so as to isolate only monocytes. The isolated monocytes were treated with receptor activator of nuclear factor kappa B ligand (RANKL, PeproTech, 315-11, 50 ng/ml) to induce osteoclast differentiation. When a morphology of fused multinuclear cells began to appear from day 3 after treatment with RANKL, the cells were differentiated into giant multinuclear cells for 4 to 6 days (see FIG. 1), and dead by cell apoptosis after 6 days.
During RANKL treatment, each PMSA compound was also used for treatment, followed by culturing the cells for 3 or 5 days to confirm the effects of inhibiting osteoclast differentiation.
1×10^4 monocytes isolated from mouse bone marrow were put into a 96-well plate and treated with RANKL and PMSA together to confirm the effect of each PMSA on osteoclast differentiation ability. Each PMSA was used for treatment by concentration. The activity of tartrate-resistant acid phosphatase (TRAP), which has increased expression during osteoclast differentiation, was confirmed using a TRAP activity assay kit (Cosmo Bio, PMC-AK04F-COS) (see FIG. 2).
Further, after staining, the multinuclear cells formed during osteoclast differentiation were observed under a microscope, and each well was photographed and a differentiation area ratio per total area was determined using Image J software. […] Specifically, at 10 μM concentration, cells were differentiated into osteoclasts by 30% when using #25 (PMSA-3-Ac), similarly, 74% using #25-C (PMSA-Ph), 63% using #25-N (PMSA-PhN), 41% using #25-PhO (PMSA-O), and only 1% using #25-D12 (PMSA-2-OMe-5-Cl), respectively. […]

CYP2C9 = CYP2C9 (Homo sapiens, UniProt P11712); assay: CYP450 drug metabolism inhibition, 2C9; type: in vitro ADME; conditions: criterion remaining activity >50%
Sequence of CYP2C9 (P11712 whole entry): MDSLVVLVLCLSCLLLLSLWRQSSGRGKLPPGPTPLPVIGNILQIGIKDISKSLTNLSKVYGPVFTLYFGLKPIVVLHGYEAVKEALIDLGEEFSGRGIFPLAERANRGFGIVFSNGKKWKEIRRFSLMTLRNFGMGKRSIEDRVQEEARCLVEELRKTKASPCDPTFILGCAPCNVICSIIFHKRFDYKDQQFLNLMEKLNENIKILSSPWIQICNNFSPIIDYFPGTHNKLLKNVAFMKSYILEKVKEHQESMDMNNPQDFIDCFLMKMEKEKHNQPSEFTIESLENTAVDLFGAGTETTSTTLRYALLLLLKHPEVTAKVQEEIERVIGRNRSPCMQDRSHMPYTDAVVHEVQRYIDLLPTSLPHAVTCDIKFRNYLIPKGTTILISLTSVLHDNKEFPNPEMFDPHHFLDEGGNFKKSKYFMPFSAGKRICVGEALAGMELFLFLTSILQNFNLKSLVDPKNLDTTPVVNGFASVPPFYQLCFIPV
Method: as §1

Plasma stability = type: in vitro ADME
Method: as §1

CYP2D6 = CYP2D6 (Homo sapiens, UniProt P10635); assay: CYP450 drug metabolism inhibition, 2D6; type: in vitro ADME; conditions: criterion remaining activity >50%
Sequence of CYP2D6 (P10635 whole entry): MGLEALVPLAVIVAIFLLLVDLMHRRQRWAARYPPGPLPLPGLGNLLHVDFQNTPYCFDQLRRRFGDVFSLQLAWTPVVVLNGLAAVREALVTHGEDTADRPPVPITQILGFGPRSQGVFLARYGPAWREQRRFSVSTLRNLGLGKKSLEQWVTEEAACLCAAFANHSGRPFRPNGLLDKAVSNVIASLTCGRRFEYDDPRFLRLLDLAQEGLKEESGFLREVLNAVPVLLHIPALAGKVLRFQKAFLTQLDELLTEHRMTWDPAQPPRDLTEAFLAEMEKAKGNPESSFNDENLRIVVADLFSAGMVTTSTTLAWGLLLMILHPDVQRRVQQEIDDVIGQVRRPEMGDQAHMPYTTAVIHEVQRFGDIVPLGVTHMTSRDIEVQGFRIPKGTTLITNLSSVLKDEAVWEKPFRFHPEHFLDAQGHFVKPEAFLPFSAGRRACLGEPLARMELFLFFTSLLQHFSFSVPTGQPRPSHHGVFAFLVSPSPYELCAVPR
Method: as §1

[3] = system: osteoclast-specific genes (CatK, NFATc1, DC-STAMP, OC-STAMP, Acp5); assay: qRT-PCR of osteoclast-specific gene mRNA expression; type: cell-based, mouse; conditions: for mRNA expression of DC-STAMP / mRNA expression of OC-STAMP / mRNA expression of cathepsin K (CtsK): day 3 of differentiation, compared to control (Ctrl) without PMSA treatment
Method: Further, in order to confirm the expression degree of the osteoclast-specific gene, an mRNA expression level was measured by RT-PCR in the PMSA compound-treated cells. RNA was isolated from the cells differentiated into osteoclasts using an RNeasy kit (Qiagen, 74106), quantified using a spectrophotometer, followed by synthesizing 0.5 μg of RNA using reverse transcriptase (Takara, RR037 A). The synthesized cDNA was subjected to qRT-PCR with a QuantStudio 3 real-time PCR system (Applied Biosystems) using Power SYBR Green […] (Applied Biosystems).
All qPCR experiments were performed in duplicate, and 18S was used as a control. The ddCT method was used for data analysis.
In order to further confirm the inhibitory effect of PSTP-3,5-Me on osteoclast differentiation, the expression levels genes related to osteoclast production were investigated. mRNA expression of specific markers associated with osteoclast production was measured by RT-PCR in 0 or 6 μM PSTP-3,5-Me-treated cells.
For qRT-PCR, total RNA was extracted from BMMs using a TRIzol reagent (Thermo Fisher Scientific, MA, USA). Complementary DNA was synthesized from the total RNA using a Verso cDNA synthesis kit (Thermo Fisher Scientific, MA, USA). Thereafter, quantitative PCR (qPCR) was performed using the QuantStudio 3 real-time PCR system (Applied Biosystems, CA, USA) together with Power SYBR Green PCR Master Mm (Applied Biosystems, CA, USA).

[4] = compared to group in which osteoclasts are normally differentiated
[5] = 6 μM compared to control (0 μM)

| SMILES | toxicity [1] | Microsomal stability (>60%) M (Microsomal stability (M)) [%] | CYP 2C19 remaining activity (CYP2C19) [%] | decrease in bone resorption ability (mouse bone marrow cells) [%] | cells differentiated into osteoclasts (differentiation area ratio per total area) [2] [%] | osteoclast differentiation inhibitory ability [2] | CYP 2C9 remaining activity (CYP2C9) [%] | Plasma S Human 30 min (% Remaining) (Plasma stability) | Plasma S Human 120 min (% Remaining) (Plasma stability) | CYP 2D6 remaining activity (CYP2D6) [%] | mRNA expression of DC-STAMP [3] | mRNA expression of OC-STAMP [3] | mRNA expression of cathepsin K (CtsK) [3] | other results |
| --- | --- | --- | --- | --- | --- | --- | --- | --- | --- | --- | --- | --- | --- | --- |
| CC(=O)c1cccc(N(CC(=O)Nc2ccccc2Sc2ccccc2)S(C)(=O)=O)c1 [#25, 2-(N-(3-acetylphenyl)methylsulfonamido)-N-(2-(phenylthio)phenyl)acetamide] | low toxicity | 8.0 | 6.2 | 16 | 30 | excellent | 63.7 | 87.1 % Remaining | 97.3 % Remaining | 80.4 | decrease | decrease | decrease | – |
| Cc1cc(C)cc(N([C@@H](C)C(=O)Nc2ccccc2Sc2ccccc2)S(C)(=O)=O)c1 [#25-D5, N^2-(3,5-dimethylphenyl)-N^2-(methylsulfonyl)-N-[2-(phenylthio)phenyl]alanineamide] | – | 14.7 | 21.7 | – | – | – | 52.4 | 100/100 % Remaining | 100/100 % Remaining | 87.3 | – | – | – | bone resorption region (optical microscope) (mouse bone marrow cells): not largely shown; bone resorption ability (fluorescence intensity) (mouse bone marrow cells; RANKL, 0, 3 or 10 μM): significantly decreased in a dose-dependent manner; differentiation area [2, 4]: significant reduction; giant multinuclear cells [2, 4]: significant reduction; number of osteoclasts [2, 4]: significant reduction; Acp5 expression level [3, 5]: slightly decreased; CatK expression degree [3, 5]: significantly decreased; DC-STAMP expression level [3, 5]: decreased on day 1; NFATc1 expression degree [3, 5]: significantly decreased; OC-STAMP expression level [3, 5]: decreased on day 1 |
| COc1ccc(Cl)cc1N(CC(=O)Nc1ccccc1Sc1ccccc1)S(C)(=O)=O [#25-D12, 2-(N-(5-chloro-2-methoxyphenyl)methylsulfonamido)-N-(2-(phenylthio)phenyl)acetamide] | low toxicity | 21.7 | 6.3 | 12.5 | 1 | excellent | 59.8 | 98.3 % Remaining | 97.8 % Remaining | 85.5 | decrease | decrease | decrease | – |
